Assay [1] has as its system EGFR-mutant NSCLC PC-9 cells. The experiment in a line: Apoptosis (caspase 3/7, IncuCyte) in combination with EGFR inhibitor. Particulars: apoptotic index. The format is cell-based. How it is done: Apoptosis was detected by CellEvent Caspase 3/7 Green ReadyProbes Reagent (ThermoFisher), a fluorogenic indicator of activated caspase-3/7. Cell death (apoptsis) and cell growth (phase confluence) over time were captured by IncuCyte live cell imaging system (Essen Bioscience) and quantified by IncuCyte S3 software (Essen Bioscience). Apoptotic Index was calculated by dividing apoptosis signal with phase confluence.

In the next assay the test system is NCI-H226. Put plainly: 72H TEAD Proliferation Assay (Cell Titer Glo 2.0). The format is cell-based. Particulars: Homo sapiens, NCI-H226, 72 h, CTG 2.0, cell line not given (NCI-H226 responsive, NCI-H28 non-responsive). In a few lines:
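Growth read-out is ATP luminescence (CellTiter-Glo 2.0) after 72 h compound exposure, corrected for no-CTG background and day-0 values, with GI50 from nonlinear regression. Sensitive line NCI-H226 (NF2-deficient); non-responsive NCI-H28 (NF2 wild type) distinguishes TEAD-driven from nonspecific growth inhibition.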

Bounds are passed on as bounds.

Take `C=CC(=O)Nc1cc(Nc2nccc(-c3cn(C)c4ccccc34)n2)c(OC)cc1N(C)CCN(C)C` [Osimertinib, reference compound]: the “Fold Change over DMSO at 48 hrs” value in assay [1] (Osimertinib (100 nM) alone) is 2.6.
For `CC(C)(C)c1ccc(-c2nc3cc(C(=O)O)ccc3n3cccc23)cc1` [I-41, 4-(4-(tert-butyl)phenyl)pyrrolo[1,2-a]quinoxaline-7-carboxylic acid], the GI50 in the assay on NCI-H226 is not above 1000 nM. The “Fold Change over DMSO at 48 hrs” value in assay [1] (I-41 (10 μM) alone) was 1.1; in assay [1] (Osimertinib (100 nM) + I-41 (0.37 μM)), 4.3; in assay [1] (Osimertinib (100 nM) + I-41 (1.1 μM)) it was 4.9; in assay [1] (Osimertinib (100 nM) + I-41 (10 μM)) it was 5.5.
On to `COc1cc(-c2ccc(C(F)(F)F)cc2)nc2cc(C(=O)N[C@@H](CO)c3ccccc3)ccc12` [I-345, (R)—N-(2-hydroxy-1-phenylethyl)-4-methoxy-2-(4-(trifluoromethyl)phenyl)quinoline-7-carboxamide], for which the 50% growth inhibitory concentration (GI50) with NCI-H226 was not above 1000 nM.
Same read-out and setting: the result for `COc1cc(-c2ccc(C(F)(F)F)cc2)nc2cc(S(N)(=O)=O)ccc12` [I-416, 4-Methoxy-2-(4-(trifluoromethyl)phenyl)quinoline-7-sulfonamide] reads 1000 to 5000 nM; that for `O=C(O)c1ccc2c(c1)nc(N1CCCCC1)c1cccn12` [I-2, 4-(Piperidin-1-yl)pyrrolo[1,2-a]quinoxaline-7-carboxylic acid], more than 10000 nM.
The same measure, in the same setting: the result for `C=CC(=O)NCc1cc2cc(F)ccc2c(-c2ccc(C(F)(F)F)cc2)n1` [I-299, N-((6-fluoro-1-(4-(trifluoromethyl)phenyl)isoquinolin-3-yl)methyl)acrylamide] reads not above 1000 nM; that for `O=C(O)c1ccc2c(c1)nc(NCCC(F)(F)C(F)(F)F)c1cccn12` [I-121, 4-((3,3,4,4,4-Pentafluorobutyl)amino)pyrrolo[1,2-a]quinoxaline-7-carboxylic acid], 1000 to 5000 nM; that for `C=CC(=O)n1ccc2c(-c3ccc(C(C)(C)C)cc3)nccc21` [I-105, 1-(4-(4-(tert-Butyl)phenyl)-1H-pyrrolo[3,2-c]pyridin-1-yl)prop-2-en-1-one], 1000 to 5000 nM.
Consider `COc1cc(-c2ccc(C(F)(F)F)cc2)nc2cc(C(=O)N[C@@H](C)CO)ccc12` [I-325, (S)—N-(1-hydroxypropan-2-yl)-4-methoxy-2-(4-(trifluoromethyl)phenyl)quinoline-7-carboxamide], for which the 50% growth inhibitory concentration (GI50) in the assay with NCI-H226 is not above 1000 nM.
Still for that read-out and setting: the result for `O=C(O)c1ccc2c(c1)nc(C1CCOCC1)c1nccn12` [I-69, 4-(Tetrahydro-2H-pyran-4-yl)imidazo[1,2-a]quinoxaline-7-carboxylic acid] reads more than 10000 nM.
On the same count and under the same terms, next, `COc1cccc([C@H](C)NC(=O)c2ccc3c(C)cc(-c4ccc(C(F)(F)F)cc4)nc3c2)c1` [I-268, (S)—N-(1-(3-methoxyphenyl)ethyl)-4-methyl-2-(4-(trifluoromethyl)phenyl)quinoline-7-carboxamide]: not above 1000 nM; `O=C(O)c1ccc2c(c1)nc(N1CCC3(CCOC3)CC1)c1cccn12` [I-35, 4-(2-Oxa-8-azaspiro[4.5]decan-8-yl)pyrrolo[1,2-a]quinoxaline-7-carboxylic acid]: 1000 to 5000 nM.
`O=C(O)c1ccc2c(c1)nc(N1CCC(C(F)F)CC1)c1cccn12` [I-17, 4-(4-(Difluoromethyl)piperidin-1-yl)pyrrolo[1,2-a]quinoxaline-7-carboxylic acid] came in with a GI50 in the assay with NCI-H226 of 1000 to 5000 nM.
Same read-out and setting: next, `CC(C)C1CCN(c2nc3cc(C(=O)O)ccc3n3cccc23)CC1` [I-12, 4-(4-Isopropylpiperidin-1-yl)pyrrolo[1,2-a]quinoxaline-7-carboxylic acid]: 1000 to 5000 nM.
Take `O=C(O)c1ccc2c(c1)nc(OCc1ccc(C(F)(F)F)cc1)c1cccn12` [I-130, 4-((4-(Trifluoromethyl)benzyl)oxy)pyrrolo[1,2-a]quinoxaline-7-carboxylic acid]: the GI50 in the assay on NCI-H226 is more than 10000 nM.
The same measure, in the same setting: next, `CN(C#N)Cc1cn2ccnc2c(-c2ccc(C(F)(F)F)cc2)n1` [I-239, N-methyl-N-((8-(4-(trifluoromethyl)phenyl)imidazo[1,2-a]pyrazin-6-yl)methyl)cyanamide]: 1000 to 5000 nM; `O=C(O)c1ccc2c(c1)nc(-c1ccccc1)c1nccn12` [I-63, 4-Phenylimidazo[1,2-a]quinoxaline-7-carboxylic acid]: more than 10000 nM.
For the compound `C=CC(=O)NCc1cc2ccccc2c(-c2ccc(C(F)(F)F)cc2F)n1` [I-301, N-((1-(2-Fluoro-4-(trifluoromethyl)phenyl)isoquinolin-3-yl)methyl)acrylamide], the 50% growth inhibitory concentration (GI50) with NCI-H226 was not above 1000 nM.

The values are drawn from US12655150B2 (Cedilla Therapeutics, Inc., priority 2021, dated 2026).
